Test [1] deals with mouse uterus. As to the kind of experiment: Uterine weight in intact female mice. The format is in vivo. The note with it: intact C57BL/6 female mice, daily intraperitoneal injection. Here is the method: (§1) 8 week old C57b1/6J female ovariectomized or intact mice were purchased from Jackson Laboratories, Sacramento, Calif. Mice were housed and maintained according to OLAC standard procedures in the NAF facility at UC Berkeley, Calif. All mice were fed a soy-free chow diet 2916.15 (Harlan Laboratories, Livermore, Calif.) starting one week before osmotic pump implantation or 2′, 3′, 4′-THC injection. Pumps Model 2006 were purchased from Alzet and filled with vehicle, 1 μg […], 2 mg of 2′, 3′, 4′-THC or the combination of 2′, 3′, 4′-THC and estradiol. All drugs were dissolved in sterile vehicle consisting of 50% dimethylsulfoxide (DMSO), 25% ETOH and 25% deionized water. Pumps were handled with sterile gloves and filled using a 27 gauge filling tube and 1 mL syringe. All pumps were placed in 1X PBS in 15 mL sterile conical tubes and incubated overnight at 37° . Pumps were surgically implanted into 8 week old C57b1/6J female ovariectomized mice (Jackson Laboratory, Sacramento, Calif.) posterior to the scapula and left for a duration of 4 weeks. Intact mice were injected intraperitoneal with 2′, 3′, 4′-THC every day for 3 weeks. Mice were weighed once a week for the duration of the experiment. The intraperitoneal gonadal fat was removed and weighed. Uterine tissue was collected, fluid drained and then weighed.
FIGS. 5a-5h. 2′, 3′, 4′-THC acts as antagonist in the mouse uterus. […]

Test [2] deals with mouse uterus. Put plainly: Ovariectomized (OVX) mouse model, osmotic pump. The format is in vivo. The note with it: OVX mice. Here is the method: as §1
Tissues were dissected and immediately frozen in liquid nitrogen. Before RNA isolation, tissues were homogenized in PureZOL™ using the MP FastPrep™-24 for 40 seconds.
Uterine Tissue Slide Preparation Uterine tissue was removed and trimmed of excess adipose tissue. Tissues were fixed in formalin for 24 hours then transferred to 50% ETOH for 1 hour followed by 70% ethanol (ETOH) for another hour. After fixation tissues were sent to Histopathology Reference Laboratory, Hercules Calif. where they were paraffin embedded, sectioned and stained with hematoxylin and eosin for morphological exam
FIGS. 5a-5h. 2′, 3′, 4′-THC acts as antagonist in the mouse uterus. Uterine weights of intact (FIG. 5a) and OVX (FIG. 5b) mice. […] (FIG. 5h) Total body weight of OVX mice after 4 week treatment. Error bars are ±SEM.

A further test has as its target ERα (Homo sapiens, UniProt P03372). As to the kind of experiment: ChIP of ERα recruitment in MCF-7 cells. The note with it: 5 μM + 10 nM E2, 1 hour. The test is classed as cell-based. On the set-up: expressed in transfected cells.
The next test deals with U2OS-ERα cells. As to the kind of experiment: KRT19 mRNA real-time PCR in U2OS-ERα cells. The test is classed as cell-based, human. Here is the method: (FIG. 1a) Chemical structure of 2′, 3′, 4′-THC. (FIG. 1b) U2OS cells cotransfected with ERE tk-luciferase and ERα (left panel) or ERβ (right panel). After transfection the cells were treated for 24 hours with 10 nM estradiol and 5 μM 2′, 3′, 4′-THC alone or in combination. Cells were lysed and luciferase activity was measured. RLU is relative light units. Error bars are the Mean±SEM. **P≤0.01. […] The total cellular RNA was extracted and real-time PCR for KRT19 mRNA was performed as described in Materials and Methods. […] Error bars are ±SEM. *P≤0.05, **** P≤0.0001.
FIGS. 3a-3d. […] Error bars are ±SEM.

Chain of ERα (P03372 whole entry): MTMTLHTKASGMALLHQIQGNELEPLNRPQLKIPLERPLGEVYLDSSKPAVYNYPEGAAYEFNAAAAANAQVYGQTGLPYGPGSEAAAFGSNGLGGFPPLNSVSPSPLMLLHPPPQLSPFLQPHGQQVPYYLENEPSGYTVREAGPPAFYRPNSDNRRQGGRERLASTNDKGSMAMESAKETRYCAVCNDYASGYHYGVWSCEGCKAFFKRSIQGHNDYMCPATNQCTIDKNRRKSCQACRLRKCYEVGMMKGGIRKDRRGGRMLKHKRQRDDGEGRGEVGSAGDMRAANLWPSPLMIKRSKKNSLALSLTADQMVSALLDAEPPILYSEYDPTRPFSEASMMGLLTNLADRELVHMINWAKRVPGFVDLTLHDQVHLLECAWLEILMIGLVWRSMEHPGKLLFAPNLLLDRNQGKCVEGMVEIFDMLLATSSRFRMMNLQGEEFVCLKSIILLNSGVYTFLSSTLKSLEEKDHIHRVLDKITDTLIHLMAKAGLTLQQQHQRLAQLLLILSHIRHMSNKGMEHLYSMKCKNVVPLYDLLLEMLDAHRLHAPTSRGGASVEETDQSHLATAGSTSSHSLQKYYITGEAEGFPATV

In the case of `O=C(/C=C/c1ccccc1)c1ccc(O)c(O)c1O` [2′, 3′, 4′-THC, 2′, 3′, 4′-trihydroxychalcone], the “reduction of uterine growth compared to the control mice” value in the test with mouse uterus [1] amounted to 50%. Further, in the test on mouse uterus [2] (combination with E2, 4 weeks), the “H & E staining of uterus, effect on E2 response” value is “inhibited the proliferative response”; the “effect on E2-induced increase in uterine weight” value is reported as “blocked”; the “effect on E2-induced increased uterine mRNA for LCN2” value is recorded as “antagonist effect”; the “effect on E2-induced increased uterine mRNA for LTF” value is “antagonist effect”. Also, in the test with mouse uterus [2] (combination with E2, 4 weeks), the “effect on E2-induced increased uterine mRNA for SA100A9” value is listed as “antagonist effect” and the “effect on E2 decrease of gonadal adipose tissue fat” value is reported as “not blocked”. Further, the “uterine size / uterine weight, compound alone” value in the test with mouse uterus [2] (osmotic pump, 4 weeks) is on record as “did not increase”. Also, on ERα, the “effect on E2 induced ERα binding to the c-MYC enhancer” value is reported as “inhibited” and the “effect on recruitment of ERα to the KRT19 ERE” value is “did not have a significant effect”. In addition, the “KRT19 gene expression, compound alone” value with U2OS-ERα cells (10 nM E2, 5 μM 2′,3′,4′-THC, 1 μM tamoxifen or raloxifene, 24 hours) was “no effect”. The “activation of the KRT19 gene in the presence of E2” value in the test with U2OS-ERα cells (1 and 5 μM 2′,3′,4′-THC, 24 h) is recorded as “synergistic activation”. Moreover, the “effect on E2-induced KRT19 expression” value in the test with U2OS-ERα cells (in combination with 10 nM E2, 24 hours) is listed as “synergistic activation”.

These data come from patent US20190008797A1, “ESTROGEN RECEPTOR ALPHA COLIGANDS, AND METHODS OF USE THEREOF” (priority 2016, published 2019).
